Test: Determination of the distribution coefficients between polar and non-polar phases
Type: physicochemical
Conditions: for Distribution coefficient k: 25° C.; for phase in which the isomer accumulates: seen from the distribution coefficients of Table 1
Source text: To achieve separation of the cis- and trans-isomers of the alkenediols I which is as complete, efficient and economical as possible, it is necessary, when selecting the solvents for the polar and non-polar phases, to ensure that the quotient of the distribution coefficients ktrans /kcis of the trans- and cis-isomers between the polar and non-polar phases is as large as possible. The distribution coefficient k of the cis- or trans-isomer is defined as the concentration of isomer in the polar phase divided by the concentration of the same isomer in the non-polar phase in the equilibrium state, as illustrated by the following equations (1) and (2): [formula]
2 g of cis- or trans-alkenediol were dissolved, at 25° C., in a mixture of 40 ml of a polar solvent and 40 ml of a non-polar solvent. The mixture was vigorously shaken in a separating funnel for 10 minutes. Following separation of the phases, the solvents were removed by distillation under reduced pressure. The residues were weighed, and the results were used to calculate the distribution coefficients as defined in equations (1) and (2) above (see Table 1 below).

[1] = polar phase water + 2% methanol, non-polar phase toluene
[2] = polar phase water + 10% ethanol, non-polar phase toluene
[3] = polar phase water, non-polar phase cyclohexane
[4] = polar phase water, non-polar phase methyl cyclohexane
[5] = polar phase water, non-polar phase methyl isobutylketone
[6] = polar phase water, non-polar phase methylene chloride
[7] = polar phase water, non-polar phase n-hexane
[8] = polar phase water, non-polar phase toluene

CC(C)(O)/C=C/C(C)(C)O [trans, trans-2,5-dimethyl-3-hexene-2,5-diol]
Distribution coefficient k [1]: 62
Distribution coefficient k [2]: 23
Distribution coefficient k [3]: 30
Distribution coefficient k [4]: 52
Distribution coefficient k [5]: 3.0
Distribution coefficient k [6]: 7.3
Distribution coefficient k [7]: 34
Distribution coefficient k [8]: 25
phase in which the isomer accumulates: accumulates in the polar phase

CC(C)(O)/C=C\C(C)(C)O [cis, cis-2,5-dimethyl-3-hexene-2,5-diol]
Distribution coefficient k [1]: 0.39
Distribution coefficient k [2]: 0.35
Distribution coefficient k [3]: 0.56
Distribution coefficient k [4]: 0.61
Distribution coefficient k [5]: 0.09
Distribution coefficient k [6]: 0.17
Distribution coefficient k [7]: 0.76
Distribution coefficient k [8]: 0.38
phase in which the isomer accumulates: accumulates in the non-polar phase
